Reference: patent US10189859B2, “Derivatives of 6-(2,3-dichlorophenyl)-1,2,4-triazin-5-amine” (Nektar Therapeutics, priority 2013, dated 2019)
Values joined by “and” are separate entries in the source; they are usually repeats but may differ in a detail not shown here. Identical values can stand only once. Counter-ions that a name gives are not always drawn. Like-named read-outs stand apart in the source and are kept apart here.

Biological target: Nav1.7 sodium channels (human SCN9A gene) (Homo sapiens (Human), UniProt Q15858)
Experiment: Automated patch clamp (IonWorks Barracuda) of Nav1.7 stably expressed in CHO cells
Assay type: cell-based
Protocol: The potencies of the compounds provided herein to block specific Na+ channels was measured using automated patch clamp electrophysiologically of Nav1.7 sodium channels (human SCN9A gene) stably expressed in CHO cells using the IonWorks™ Barracuda system. Currents were measured from the whole cell patch configuration. From a holding potential of −90 mV, membranes were subjected to a 200 ms pre-pulse to −120 mV, then pulsed to 0 mV to measure blockade of the tonic (resting) state. Inactivated state block was elicited by repolarization to −100 mV (20 ms pulse duration), followed by depolarization to 0 mV (20 ms pulse duration). Peak inward Na+ currents were measured in the presence of vehicle or various concentrations of the test compound to determine the percent block of current. Concentration-response relationships were used to calculate IC50 values for the illustrative compounds.

[1] = inactivated state block, CHO cells, read-out: Inactivated state IC50
[2] = tonic (resting) state block, CHO cells, read-out: Tonic state IC50
[3] = read-out: Inactivated state IC50

Sequence of Nav1.7 sodium channels (human SCN9A gene) (Q15858 whole entry): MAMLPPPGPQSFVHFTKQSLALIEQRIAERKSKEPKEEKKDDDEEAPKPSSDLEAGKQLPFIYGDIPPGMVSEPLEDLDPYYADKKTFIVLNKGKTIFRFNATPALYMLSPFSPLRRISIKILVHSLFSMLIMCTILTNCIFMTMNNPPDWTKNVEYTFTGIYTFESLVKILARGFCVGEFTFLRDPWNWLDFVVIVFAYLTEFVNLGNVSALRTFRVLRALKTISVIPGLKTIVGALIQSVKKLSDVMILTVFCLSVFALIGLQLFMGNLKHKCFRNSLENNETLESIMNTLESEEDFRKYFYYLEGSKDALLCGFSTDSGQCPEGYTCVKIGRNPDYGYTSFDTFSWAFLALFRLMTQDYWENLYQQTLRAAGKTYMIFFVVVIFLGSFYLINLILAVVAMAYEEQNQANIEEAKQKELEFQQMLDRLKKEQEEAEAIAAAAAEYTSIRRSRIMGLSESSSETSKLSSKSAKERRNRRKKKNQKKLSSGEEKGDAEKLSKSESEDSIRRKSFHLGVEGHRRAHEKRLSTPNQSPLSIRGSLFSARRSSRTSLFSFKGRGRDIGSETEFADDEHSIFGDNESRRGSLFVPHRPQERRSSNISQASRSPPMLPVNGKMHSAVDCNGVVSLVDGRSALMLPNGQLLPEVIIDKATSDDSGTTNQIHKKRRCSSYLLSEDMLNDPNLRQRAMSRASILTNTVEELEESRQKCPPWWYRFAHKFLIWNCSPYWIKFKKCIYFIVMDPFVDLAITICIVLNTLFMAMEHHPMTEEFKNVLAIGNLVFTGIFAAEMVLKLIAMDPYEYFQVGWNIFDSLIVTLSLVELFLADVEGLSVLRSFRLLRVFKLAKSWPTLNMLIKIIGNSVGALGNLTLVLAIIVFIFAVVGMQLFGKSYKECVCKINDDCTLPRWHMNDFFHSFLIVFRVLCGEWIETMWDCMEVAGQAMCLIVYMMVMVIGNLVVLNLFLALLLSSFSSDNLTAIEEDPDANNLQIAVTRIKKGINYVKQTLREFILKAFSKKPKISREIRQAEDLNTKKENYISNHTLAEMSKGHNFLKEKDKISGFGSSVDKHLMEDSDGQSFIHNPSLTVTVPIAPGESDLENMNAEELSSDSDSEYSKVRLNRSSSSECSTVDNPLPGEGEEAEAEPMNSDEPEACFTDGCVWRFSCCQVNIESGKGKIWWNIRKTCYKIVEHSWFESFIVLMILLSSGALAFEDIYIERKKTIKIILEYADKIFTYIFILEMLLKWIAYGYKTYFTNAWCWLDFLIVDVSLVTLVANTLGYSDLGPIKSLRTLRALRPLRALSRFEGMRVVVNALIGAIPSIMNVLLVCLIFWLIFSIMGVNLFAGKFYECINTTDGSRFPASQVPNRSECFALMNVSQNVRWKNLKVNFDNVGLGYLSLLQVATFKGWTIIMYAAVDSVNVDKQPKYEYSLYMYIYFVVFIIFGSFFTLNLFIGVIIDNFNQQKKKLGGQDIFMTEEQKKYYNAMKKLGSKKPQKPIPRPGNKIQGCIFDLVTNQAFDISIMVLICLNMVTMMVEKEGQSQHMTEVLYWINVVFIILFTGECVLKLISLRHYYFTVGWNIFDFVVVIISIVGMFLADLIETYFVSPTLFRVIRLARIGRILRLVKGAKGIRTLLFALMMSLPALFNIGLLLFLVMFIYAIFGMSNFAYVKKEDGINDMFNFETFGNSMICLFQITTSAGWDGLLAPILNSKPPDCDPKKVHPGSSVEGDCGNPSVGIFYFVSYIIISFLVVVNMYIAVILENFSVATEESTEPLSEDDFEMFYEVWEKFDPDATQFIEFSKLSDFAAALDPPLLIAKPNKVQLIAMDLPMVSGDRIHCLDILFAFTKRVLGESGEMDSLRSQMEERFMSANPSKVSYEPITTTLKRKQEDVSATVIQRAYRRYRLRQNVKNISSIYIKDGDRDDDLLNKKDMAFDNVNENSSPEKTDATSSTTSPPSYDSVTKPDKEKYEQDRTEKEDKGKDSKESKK

Row | Compound | IC50 [1] | IC50 [2] | IC50 [3] | IC50 (read-out: Tonic state IC50)
1 | Nc1nc(N2CCN(C[C@H](O)COC3CCC3)CC2)nnc1-c1cccc(Cl)c1Cl [Compound 84, (2S)-1-{4-[5-Amino-6-(2,3-dichlorophenyl)-1,2,4-triazin-3-yl]piperazin-1-yl}-3-(cyclobutyloxy)propan-2-ol] | < 50 µM | 192 µM |  | 
2 | COCCOCCOCCN1CCN(c2nnc(-c3cc(F)cc(Cl)c3Cl)c(N)n2)CC1 [Compound 104, 3-N-(4′-N-mPEG3-piperazinyl) 5-fluoro lamotrigine] | < 50 µM | > 200 µM |  | 
3 | COCCOCC(=O)N(C)CCN(C)c1nnc(-c2cccc(Cl)c2Cl)c(N)n1 [Compound 190, N-(2-((5-amino-6-(2,3-dichlorophenyl)-1,2,4-triazin-3-yl)(methyl)amino)ethyl)-2-(2-methoxyethoxy)-N-methylacetamide] | 273 µM | > 200 µM |  | 
4 | COCCOCCOCC(=O)N1CCN(c2nnc(-c3cccc(Cl)c3Cl)c(N)n2)CC1 [Compound 105, 3-N-mPEG2-CM-piperazinyl lamotrigine] | > 300 µM | > 200 µM |  | 
5 | Nc1nc(N2CCN[C@@H](CO)C2)nnc1-c1cccc(Cl)c1Cl [Compound 122, (R)-5-amino-3-N-[3-(hydroxymethyl)piperazin-1-yl] lamotrigine diHCl] | > 150 µM | > 150 µM |  | 
6 | Nc1nc(N2CCN(CCOC(F)(F)F)CC2)nnc1-c1cccc(Cl)c1Cl [Compound 88, 6-(2,3-dichlorophenyl)-3-(4-(2-(trifluoromethoxy)ethyl)piperazin-1-yl)-1,2,4-triazin-5-amine] | < 50 µM | 113 µM |  | 
7 | COCCS(=O)(=O)CCOCCNc1nnc(-c2cccc(Cl)c2Cl)c(N)n1 [Compound 186, 6-(2,3-dichlorophenyl)-N3-(2-(2-((2-methoxyethyl)sulfonyl)ethoxy)ethyl)-1,2,4-triazine-3,5-diamine] | 100 µM | > 200 µM |  | 
8 | COCCOCCOCCN1C(C)CN(c2nnc(-c3cccc(Cl)c3Cl)c(N)n2)CC1C (centres unmarked) [Compound 111, 3-N-(4-N-mPEG3-3,5-dimethylpiperazinyl) lamotrigine] | < 50 µM | > 200 µM |  | 
9 | CC(=O)NCCOCCNc1nnc(-c2cccc(Cl)c2Cl)c(N)n1 [Compound 175, N-(2-(2-((5-amino-6-(2,3-dichlorophenyl)-1,2,4-triazin-3-yl)amino)ethoxy)ethyl)acetamide] | > 300 µM | > 200 µM |  | 
10 | COCCOCCN(C)CCN(C)c1nnc(-c2cccc(Cl)c2Cl)c(N)n1 [Compound 193, 6-(2,3-dichlorophenyl)-N3-(2-((2-(2-methoxyethoxy)ethyl)(methyl)amino)ethyl)-N3-methyl-1,2,4-triazine-3,5-diamine] | < 50 µM | 62.6 µM |  | 
11 | CN(CCO)c1nnc(-c2cccc(Cl)c2Cl)c(N)n1 [Compound 185, 2-((5-amino-6-(2,3-dichlorophenyl)-1,2,4-triazin-3-yl)(methyl)amino)ethanol] |  |  | 176 µM | > 200 µM
12 | Nc1nc(N2CCN(CC(F)(F)F)CC2)nnc1-c1cccc(Cl)c1Cl [Compound 87, 6-(2,3-dichlorophenyl)-3-(4-(2,2,2-trifluoroethyl)piperazin-1-yl)-1,2,4-triazin-5-amine] | < 50 µM | > 200 µM |  | 
13 | COCCOCCOCC(COCCOCCOC)OCCNc1nnc(-c2cccc(Cl)c2Cl)c(N)n1 [Compound 180, 6-(2,3-dichlorophenyl)-N3-(10-((2-(2-methoxyethoxy)ethoxy)methyl)-2,5,8,11-tetraoxatridecan-13-yl)-1,2,4-triazine-3,5-diamine] | 298 µM | > 200 µM |  | 
14 | Nc1nc(N2CCN3CCOC[C@@H]3C2)nnc1-c1cccc(Cl)c1Cl [Compound 131, (S)-6-(2,3-dichlorophenyl)-3-(hexahydropyrazino[2,1-c][1,4]oxazin-8(1H)-yl)-1,2,4-triazin-5-amine di HCl salt] |  |  | 187 µM | > 200 µM
15 | COC[C@@H](O)CNC1(C)CCN(c2nnc(-c3cccc(Cl)c3Cl)c(N)n2)C1 (stereo partly drawn) [Compound 162, (2S)-1-((1-(5-amino-6-(2,3-dichlorophenyl)-1,2,4-triazin-3-yl)-3-methylpyrrolidin-3-yl)amino)-3-methoxypropan-2-ol] | 194 µM | > 200 µM |  | 
16 | COC(=O)COCCOCCNc1nnc(-c2cccc(Cl)c2Cl)c(N)n1 [Compound 197, methyl 2-(2-(2-((5-amino-6-(2,3-dichlorophenyl)-1,2,4-triazin-3-yl)amino)ethoxy)ethoxy)acetate] | < 50 µM | > 200 µM |  | 
17 | CC(C)(C)OC(=O)COCCN1CCN(c2nnc(-c3cccc(Cl)c3Cl)c(N)n2)CC1 [Compound 203, tert-butyl 2-(2-(4-(5-amino-6-(2,3-dichlorophenyl)-1,2,4-triazin-3-yl)piperazin-1-yl)ethoxy)acetate] | < 50 µM | 87.9 µM |  | 

Row | Compound | IC50 [1] | IC50 [2] | IC50 [3] | IC50 (read-out: Tonic state IC50)
18 | COCCOCCOCCN1CCC(Nc2nnc(-c3cccc(Cl)c3Cl)c(N)n2)CC1 [Compound 108, 3-N-(1-N-mPEG3-piperidin-4-yl) lamotrigine] | 185 µM | > 200 µM |  | 
19 | Nc1nc(NC(CO)CO)nnc1-c1cccc(Cl)c1Cl [Compound 20, 2-((5-Amino-6-(2,3-dichlorophenyl)-1,2,4-triazin-3-yl)amino)propane-1,3-diol] | > 300 µM | > 200 µM |  | 
20 | Nc1nc(N2CCNCC23CC3)nnc1-c1cccc(Cl)c1Cl [Compound 141, 6-(2,3-dichlorophenyl)-3-(4,7-diazaspiro[2.5]octan-4-yl)-1,2,4-triazin-5-amine] | 149 µM | > 200 µM |  | 
21 | COC[C@@H](O)CN1CCN(c2nnc(-c3cccc(Cl)c3Cl)c(N)n2)C[C@H]1CO [Compound 134, (S)-1-((S)-4-(5-amino-6-(2,3-dichlorophenyl)-1,2,4-triazin-3-yl)-2-(hydroxymethyl)piperazin-1-yl)-3-methoxypropan-2-ol] | > 300 µM and 225 µM | > 200 µM |  | 
22 | CC(CS(=O)(=O)CCO)Nc1nnc(-c2cccc(Cl)c2Cl)c(N)n1 (centres unmarked) [Compound 93, 2-((2-((5-amino-6-(2,3-dichlorophenyl)-1,2,4-triazin-3-yl)amino)propyl)sulfonyl)ethanol] | > 300 µM | > 200 µM |  | 
23 | COC(=O)CNCCOCCNc1nnc(-c2cccc(Cl)c2Cl)c(N)n1 [Compound 199, methyl 2-((2-(2-((5-amino-6-(2,3-dichlorophenyl)-1,2,4-triazin-3-yl)amino)ethoxy)ethyl)amino)acetate] |  |  | > 300 µM | > 200 µM
24 | COCCOCCOCC(=O)N1CCC(Nc2nnc(-c3cccc(Cl)c3Cl)c(N)n2)CC1 [Compound 107, 3-N-(4′-N-mPEG2-CM piperidinyl) lamotrigine] | > 300 µM | > 200 µM |  | 
25 | Nc1nc(N2CCNC[C@H]2CO)nnc1-c1cccc(Cl)c1Cl [Compound 135] | > 300 µM | > 200 µM |  | 
26 | CC(C)(C)OCC(O)CN1CCN(c2nnc(-c3cccc(Cl)c3Cl)c(N)n2)C[C@H]1CO (stereo partly drawn) [Compound 136, 1-((S)-4-(5-amino-6-(2,3-dichlorophenyl)-1,2,4-triazin-3-yl)-2-(hydroxymethyl)piperazin-1-yl)-3-(tert-butoxy)propan-2-ol] | 86.6 µM and 92.7 µM | > 200 µM |  | 
27 | COC[C@@H](O)CN1CCN(c2nnc(-c3cccc(Cl)c3Cl)c(N)n2)[C@H](CO)C1 [Compound 138, (S)-1-((S)-4-(5-amino-6-(2,3-dichlorophenyl)-1,2,4-triazin-3-yl)-3-(hydroxymethyl)piperazin-1-yl)-3-methoxypropan-2-ol] | > 300 µM | > 200 µM |  | 
28 | COCCOCC(=O)NCC(O)CNc1nnc(-c2cccc(Cl)c2Cl)c(N)n1 (centres unmarked) [Compound 196, N-(3-((5-amino-6-(2,3-dichlorophenyl)-1,2,4-triazin-3-yl)amino)-2-hydroxypropyl)-2-(2-methoxyethoxy)acetamide] | > 300 µM | > 200 µM |  | 
29 | NC(=O)CNCCOCCNc1nnc(-c2cccc(Cl)c2Cl)c(N)n1 [Compound 194, 2-((2-(2-((5-amino-6-(2,3-dichlorophenyl)-1,2,4-triazin-3-yl)amino)ethoxy)ethyl)amino)acetamide] |  |  | > 300 µM | > 200 µM
30 | C[S+]([O-])CCOCCNc1nnc(-c2cccc(Cl)c2Cl)c(N)n1 (centres unmarked) [Compound 187, 6-(2,3-dichlorophenyl)-N3-(2-(2-(methylsulfinyl)ethoxy)ethyl)-1,2,4-triazine-3,5-diamine] | 160 µM | > 200 µM |  | 
31 | CN1CCN(CCOCCNc2nnc(-c3cccc(Cl)c3Cl)c(N)n2)CC1 [Compound 169, 6-(2,3-dichlorophenyl)-N3-(2-(2-(4-methylpiperazin-1-yl)ethoxy)ethyl)-1,2,4-triazine-3,5-diamine] | > 300 µM | > 200 µM |  | 
32 | Nc1nc(N2CCN(C[C@H](O)COCC3CC3)CC2)nnc1-c1cccc(Cl)c1Cl [Compound 83, (2S)-1-{4-[5-Amino-6-(2,3-dichlorophenyl)-1,2,4-triazin-3-yl]piperazin-1-yl}-3-(cyclopropylmethoxy)propan-2-ol] | < 50 µM | 171 µM |  | 
33 | Nc1nc(NC2CNC2)nnc1-c1cccc(Cl)c1Cl [Compound 132, 3-N-(azetidin-3-yl) lamatrogine 2HCl salt] | > 300 µM | > 200 µM |  | 
34 | CN(CCNC[C@H](O)C(F)(F)F)c1nnc(-c2cccc(Cl)c2Cl)c(N)n1 [Compound 147, (S)-3-((2-((5-amino-6-(2,3-dichlorophenyl)-1,2,4-triazin-3-yl)(methyl)amino)ethyl)amino)-1,1,1-trifluoropropan-2-ol] | < 50 µM | 151 µM and 179 µM |  | 
